How the values were obtained:
glucocorticoid receptor = target: T1, glucocorticoid receptor (Homo sapiens, UniProt P04150); assay: in vitro fluorescence polarization binding assay
T1 sequence (P04150 1-777): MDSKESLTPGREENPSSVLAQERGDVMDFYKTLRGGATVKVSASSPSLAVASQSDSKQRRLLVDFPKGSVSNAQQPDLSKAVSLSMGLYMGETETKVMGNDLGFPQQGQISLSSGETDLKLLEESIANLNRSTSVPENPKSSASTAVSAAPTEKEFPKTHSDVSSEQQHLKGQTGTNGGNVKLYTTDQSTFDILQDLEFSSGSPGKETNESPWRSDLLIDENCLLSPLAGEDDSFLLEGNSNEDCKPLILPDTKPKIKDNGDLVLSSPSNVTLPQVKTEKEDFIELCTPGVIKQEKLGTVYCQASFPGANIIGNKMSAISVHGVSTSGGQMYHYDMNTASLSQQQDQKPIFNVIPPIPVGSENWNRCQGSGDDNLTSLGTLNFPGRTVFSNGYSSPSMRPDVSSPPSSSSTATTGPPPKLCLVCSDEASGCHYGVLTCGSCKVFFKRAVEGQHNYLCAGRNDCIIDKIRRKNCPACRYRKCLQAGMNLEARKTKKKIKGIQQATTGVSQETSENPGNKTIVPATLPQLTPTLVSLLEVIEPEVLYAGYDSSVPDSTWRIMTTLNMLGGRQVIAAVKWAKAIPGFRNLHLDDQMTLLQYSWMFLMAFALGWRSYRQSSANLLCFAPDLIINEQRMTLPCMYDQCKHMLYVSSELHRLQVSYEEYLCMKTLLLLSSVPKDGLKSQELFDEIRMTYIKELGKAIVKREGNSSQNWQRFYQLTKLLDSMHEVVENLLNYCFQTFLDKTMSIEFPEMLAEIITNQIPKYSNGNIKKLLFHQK

AR = target: T2, AR (Homo sapiens, UniProt P10275); assay: in vitro studies of AR activity; format: cell-based
T2 sequence (P10275 1-920): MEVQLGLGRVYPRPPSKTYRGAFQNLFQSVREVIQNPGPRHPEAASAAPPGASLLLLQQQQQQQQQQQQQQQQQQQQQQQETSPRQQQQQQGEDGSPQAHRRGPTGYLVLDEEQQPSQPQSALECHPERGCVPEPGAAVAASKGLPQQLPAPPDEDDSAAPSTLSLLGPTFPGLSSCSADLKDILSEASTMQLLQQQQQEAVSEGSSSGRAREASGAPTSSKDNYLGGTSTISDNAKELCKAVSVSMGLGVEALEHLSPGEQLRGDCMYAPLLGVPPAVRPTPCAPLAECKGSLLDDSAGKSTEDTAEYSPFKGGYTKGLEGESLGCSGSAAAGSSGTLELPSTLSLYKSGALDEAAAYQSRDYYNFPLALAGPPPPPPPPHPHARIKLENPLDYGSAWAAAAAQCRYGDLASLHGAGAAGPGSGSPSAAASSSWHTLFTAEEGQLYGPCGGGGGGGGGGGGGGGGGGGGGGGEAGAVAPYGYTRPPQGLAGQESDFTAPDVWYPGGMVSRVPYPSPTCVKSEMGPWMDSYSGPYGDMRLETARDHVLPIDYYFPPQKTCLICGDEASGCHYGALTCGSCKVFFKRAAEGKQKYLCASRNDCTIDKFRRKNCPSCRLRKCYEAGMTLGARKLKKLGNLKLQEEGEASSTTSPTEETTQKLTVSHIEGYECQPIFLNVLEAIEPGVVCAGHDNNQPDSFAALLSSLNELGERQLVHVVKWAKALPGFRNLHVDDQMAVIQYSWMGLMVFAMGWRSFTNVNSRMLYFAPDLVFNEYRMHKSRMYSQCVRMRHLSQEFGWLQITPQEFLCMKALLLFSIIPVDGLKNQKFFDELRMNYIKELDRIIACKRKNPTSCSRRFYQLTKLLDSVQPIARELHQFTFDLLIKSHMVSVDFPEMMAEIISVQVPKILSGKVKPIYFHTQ

## CNC(=O)c1ccc(N2C(=S)N(c3ccc(C#N)c(C(F)(F)F)c3)C(=O)C23CCC3)cc1F [RD162]
Glucocorticoid receptor
  binding to glucocorticoid receptor: little to no binding
AR
  concentrations expected to block AR activity based on the in vitro studies: 1 to 10 µM

From article PMC2981508 (Science (New York, N.Y.), 2009)
